Legend:
[1] = tested on: influenza virus A/Taiwan/1/86 (H1N1); experiment: organism not typed; assay type: cell-based; settings: MDCK, 72 h, CPE in MDCK cells, three days post-virus exposure, ATPlite
[2] = in vitro; settings: dog, TOX MDCK CC50

Cn1cc(C(=O)N[C@@H]2CCC[C@H](Nc3nc(-c4c[nH]c5c(F)cc(Cl)cc45)ncc3F)C2)cn1 [Compound 52]
IC50 [1]: 2 nM | CC50 at 3 days [2]: 4400 nM | melting point: 286.8 °C

CN(C)c1ccnc(C(=O)N[C@@H]2CCC[C@H](Nc3nc(-c4c[nH]c5c(F)cc(Cl)cc45)ncc3F)C2)c1 [Compound 56]
IC50 [1]: 6 nM | CC50 at 3 days [2]: 10700 nM | melting point: 281.8 °C

O=C(N[C@@H]1CCC[C@H](Nc2nc(-c3c[nH]c4c(F)cc(F)cc34)ncc2F)C1)c1cccc(O)n1 [Compound 104]
IC50 [1]: 2 nM | CC50 at 3 days [2]: > 25000 nM | melting point: 226.6 °C

Cn1nccc1C(=O)N[C@@H]1CCC[C@H](Nc2nc(-c3c[nH]c4c(F)cc(F)cc34)ncc2F)C1 [Compound 122]
IC50 [1]: 2 nM | CC50 at 3 days [2]: > 25000 nM | melting point: > 300 °C

CC1(C(CC(=O)O)Nc2nc(-c3c[nH]c4c(F)cc(F)cc34)c(C#N)cc2F)CCOCC1 (stereo not drawn) [Compound 255, 3-((5-cyano-6-(5,7-difluoro-1H-indol-3-yl)-3-fluoropyridin-2-yl)amino)-3-(4-methyltetrahydro-2H-pyran-4-yl)propanoic Acid]
IC50 [1]: 170 nM | CC50 at 3 days [2]: 5300 nM | melting point: 151.1 °C

Cc1c[nH]c(C(=O)N[C@@H]2CCC[C@H](Nc3nc(-c4c[nH]c5c(F)cc(Cl)cc45)ncc3F)C2)n1 [Compound 71]
IC50 [1]: 2 nM | CC50 at 3 days [2]: 3400 nM | melting point: 276.8 °C

Cn1cncc1C(=O)N[C@@H]1CCC[C@H](Nc2nc(-c3c[nH]c4c(F)cc(Cl)cc34)ncc2F)C1 [Compound 64]
IC50 [1]: 3 nM | CC50 at 3 days [2]: > 25000 nM | melting point: 291.8 °C

Cc1[nH]nnc1C(=O)N[C@@H]1CCC[C@H](Nc2nc(-c3c[nH]c4c(F)cc(F)cc34)ncc2F)C1 [Compound 141]
IC50 [1]: 2 nM | CC50 at 3 days [2]: 8400 nM | melting point: 256.6 °C

O=C(N[C@@H]1CCC[C@H](Nc2nc(-c3c[nH]c4c(F)cc(F)cc34)ncc2F)C1)c1ncn[nH]1 [Compound 114]
IC50 [1]: 430 nM | CC50 at 3 days [2]: > 25000 nM | melting point: 289.8 °C

O=C(O)c1cccnc1C(=O)N[C@@H]1CCC[C@H](Nc2nc(-c3c[nH]c4c(F)cc(F)cc34)ncc2F)C1 [Compound 225]
IC50 [1]: 9 nM | CC50 at 3 days [2]: > 5000 nM | melting point: 265.2 °C

N#Cc1cc(F)c(N[C@@H]2CCC[C@@H](NC(=O)c3ccccn3)C2)nc1-c1c[nH]c2c(F)cc(F)cc12 [Compound 209]
IC50 [1]: 3 nM | CC50 at 3 days [2]: > 25000 nM | melting point: 257 °C

CC(=O)NCc1ccc(N[C@H]2CCC[C@@H](NC(=O)N3CCCC3)C2)nc1-c1c[nH]c2c(F)cc(F)cc12 (racemic) [Compound 260, N-((cis)-3-((5-(acetamidomethyl)-6-(5,7-difluoro-1H-indol-3-yl)pyridin-2-yl)amino)-cyclohexyl)pyrrolidine-1-carboxamide]
IC50 [1]: 610 nM | CC50 at 3 days [2]: > 25000 nM | melting point: 235.8 °C

O=C(N[C@@H]1CCC[C@H](Nc2nc(-c3c[nH]c4c(F)cc(Cl)cc34)ncc2F)C1)c1ncn[nH]1 [Compound 69]
IC50 [1]: 2 nM | CC50 at 3 days [2]: 8400 nM | melting point: 293.5 °C

Cc1cc(F)c2[nH]cc(-c3ncc(F)c(N[C@@H](CC(=O)O)C(C)(C)C)n3)c2c1 [Compound 169]
IC50 [1]: 19 nM | CC50 at 3 days [2]: 2300 nM | melting point: 144 °C

O=C(N[C@@H]1CCC[C@H](Nc2nc(-c3c[nH]c4c(F)cc(Cl)cc34)ncc2F)C1)c1cncnc1 [Compound 53]
IC50 [1]: 20 nM | CC50 at 3 days [2]: > 25000 nM | melting point: > 300 °C

Nc1cc(C(=O)N[C@@H]2CCC[C@H](Nc3nc(-c4c[nH]c5c(F)cc(Cl)cc45)ncc3F)C2)ncn1 [Compound 66]
IC50 [1]: 3 nM | CC50 at 3 days [2]: 5200 nM | melting point: 152.4 °C

Cc1cc(F)c2[nH]cc(-c3ncc(F)c(NC(CC(=O)O)C(C)(C)c4ccn(C)n4)n3)c2c1 (stereo not drawn) [Compound 234]
IC50 [1]: 460 nM | CC50 at 3 days [2]: > 25000 nM | melting point: 208.5 °C

From patent US10597390B2, “Indoles for use in influenza virus infection” (Janssen Sciences Ireland UC, priority 2014, dated 2020)
